From PMC10538245, “Fragment merging approach for design, synthesis, and biological assessment of urea/acetyl hydrazide clubbed thienopyrimidine derivatives as GSK-3β inhibitors” (BMC Chemistry, 2023)
Blank lines part the entries; values can stand above or below the compound they belong to.

What was measured:
GSK-3β = GSK-3β (Homo sapiens, UniProt P49841); assay: GSK-3β kinase inhibition, Z'-LYTE FRET assay (Thermo Fisher SelectScreen); assay type: biochemical; details: for inhibition at 100 µM: 100 μM single dose
MCF7 = assay: NCI 60-cell line one dose antiproliferative assay; assay type: cell-based; details: Homo sapiens; MCF7, Breast Cancer, 10 µM one dose; read-out: Percent inhibition (cell growth inhibition %)
Text: (§1) The National Cancer Institute "NCI", NIH, Bethesda, Maryland, USA (www.dtp.nci.nih.gov) chose six of the final compounds for the Developmental Therapeutic Program (DTP), codes (5a, 5b, 5c, 5d, 6a, 6b). The NCI screening service will favor compounds with drug-like modes of action based on computer-aided design. Selection The criterion for screening is the possibility of the submitted compounds to provide diversity to the NCI small molecule chemical collection. This screen employs 60 different Leukemia, melanoma, and additional tumor cell lines of the human from brain, kidney, lung, ovary, colon, breast, and prostate cancers. All compounds were picked based on their NCI codes. NSC: D-820696/1, NSC: D-820697/1, NSC: D-820698/1, NSC: D-820699/1, NSC: D-820700/1, NSC: D-820701/1. The initial 10 µM one dose percent inhibition assay was performed on the entire NCI 60 cell panel to examine the different chemotypes of this work. The results are presented as a percentage of cell growth on each of the 60 NCI cell line panels for each of the investigated substances in Table 2.
(§2) The NCI cancer screening procedure includes a comparison of all substances to the sixty NCI cell line panel representing leukemia, NSCLC, cell lines from breast cancer, prostate cancer, melanoma, CNS cancer, renal cancer, ovarian cancer, and colon cancer at a single point of 10 uM. The results of the single-dose screen can be presented using a mean graph.

LOX IMVI = assay: NCI 60-cell line one dose antiproliferative assay; assay type: cell-based; details: Homo sapiens, Melanoma, 10 µM one dose, read-out: Percent inhibition (cell growth inhibition %)
Text: as §1, §2

MDA-MB-231/ATCC = assay: NCI 60-cell line one dose antiproliferative assay; assay type: cell-based; details: Homo sapiens, Breast Cancer, 10 µM one dose, read-out: Percent inhibition (cell growth inhibition %)
Text: as §1, §2

IGROV1 = assay: NCI 60-cell line one dose antiproliferative assay; assay type: cell-based; details: Homo sapiens, IGROV-1; IGROV1, Ovarian Cancer, 10 µM one dose; read-out: Percent inhibition (cell growth inhibition %)
Text: as §1, §2

RXF 393 = assay: NCI 60-cell line one dose antiproliferative assay; assay type: cell-based; details: Homo sapiens; RXF 393, Renal Cancer, 10 µM one dose; read-out: Percent inhibition (cell growth inhibition %)
Text: as §1, §2

HS 578 T = assay: NCI 60-cell line one dose antiproliferative assay; assay type: cell-based; details: Homo sapiens, Breast Cancer, 10 µM one dose, read-out: Percent inhibition (cell growth inhibition %)
Text: as §1, §2

SN12C = assay: NCI 60-cell line one dose antiproliferative assay; assay type: cell-based; details: Homo sapiens, Renal Cancer, 10 µM one dose, read-out: Percent inhibition (cell growth inhibition %)
Text: as §1, §2

786–0 = assay: NCI 60-cell line one dose antiproliferative assay; assay type: cell-based; details: Homo sapiens; 786–0, Renal Cancer, 10 µM one dose; read-out: Percent inhibition (cell growth inhibition %)
Text: as §1, §2

EKVX = assay: NCI 60-cell line one dose antiproliferative assay; assay type: cell-based; details: Homo sapiens, Non-Small Cell Lung Cancer, 10 µM one dose, read-out: Percent inhibition (cell growth inhibition %)
Text: as §1, §2

OVCAR-5 = assay: NCI 60-cell line one dose antiproliferative assay; assay type: cell-based; details: Homo sapiens; OVCAR-5, Ovarian Cancer, 10 µM one dose; read-out: Percent inhibition (cell growth inhibition %)
Text: as §1, §2

SF-268 = assay: NCI 60-cell line one dose antiproliferative assay; assay type: cell-based; details: Homo sapiens; SF-268, CNS Cancer, 10 µM one dose; read-out: Percent inhibition (cell growth inhibition %)
Text: as §1, §2

K-562 = assay: NCI 60-cell line one dose antiproliferative assay; assay type: cell-based; details: Homo sapiens, K562; K-562, Leukemia, 10 µM one dose; read-out: Percent inhibition (cell growth inhibition %)
Text: as §1, §2

UACC-62 = assay: NCI 60-cell line one dose antiproliferative assay; assay type: cell-based; details: Homo sapiens; UACC-62, Melanoma, 10 µM one dose; read-out: Percent inhibition (cell growth inhibition %)
Text: as §1, §2

NCI-H226 = assay: NCI 60-cell line one dose antiproliferative assay; assay type: cell-based; details: Homo sapiens; NCI-H226, Non-Small Cell Lung Cancer, 10 µM one dose; read-out: Percent inhibition (cell growth inhibition %)
Text: as §1, §2

A498 = assay: NCI 60-cell line one dose antiproliferative assay; assay type: cell-based; details: Homo sapiens; A498, Renal Cancer, 10 µM one dose; read-out: Percent inhibition (cell growth inhibition %)
Text: as §1, §2

A549/ ATCC = assay: NCI 60-cell line one dose antiproliferative assay; assay type: cell-based; details: Homo sapiens, Non-Small Cell Lung Cancer, 10 µM one dose, read-out: Percent inhibition (cell growth inhibition %)
Text: as §1, §2

HOP-92 = assay: NCI 60-cell line one dose antiproliferative assay; assay type: cell-based; details: Homo sapiens; HOP-92, Non-Small Cell Lung Cancer, 10 µM one dose; read-out: Percent inhibition (cell growth inhibition %)
Text: as §1, §2

T-47D = assay: NCI 60-cell line one dose antiproliferative assay; assay type: cell-based; details: Homo sapiens, T47D, Breast Cancer, 10 µM one dose, read-out: Percent inhibition (cell growth inhibition %)
Text: as §1, §2

SR = assay: NCI 60-cell line one dose antiproliferative assay; assay type: cell-based; details: Homo sapiens, Leukemia, 10 µM one dose, read-out: Percent inhibition (cell growth inhibition %)
Text: as §1, §2

PC-3 = assay: NCI 60-cell line one dose antiproliferative assay; assay type: cell-based; details: Homo sapiens; PC-3, Prostate Cancer, 10 µM one dose; read-out: Percent inhibition (cell growth inhibition %)
Text: as §1, §2

RPMI-8226 = assay: NCI 60-cell line one dose antiproliferative assay; assay type: cell-based; details: Homo sapiens; RPMI-8226, Leukemia, 10 µM one dose; read-out: Percent inhibition (cell growth inhibition %)
Text: as §1, §2

U251 = assay: NCI 60-cell line one dose antiproliferative assay; assay type: cell-based; details: Homo sapiens, U-251; U251, CNS Cancer, 10 µM one dose; read-out: Percent inhibition (cell growth inhibition %)
Text: as §1, §2

M14 = assay: NCI 60-cell line one dose antiproliferative assay; assay type: cell-based; details: Homo sapiens; M14, Melanoma, 10 µM one dose; read-out: Percent inhibition (cell growth inhibition %)
Text: as §1, §2

MALME-3 M = assay: NCI 60-cell line one dose antiproliferative assay; assay type: cell-based; details: Homo sapiens, Melanoma, 10 µM one dose, read-out: Percent inhibition (cell growth inhibition %)
Text: as §1, §2

UO-31 = assay: NCI 60-cell line one dose antiproliferative assay; assay type: cell-based; details: Homo sapiens; UO-31, Renal Cancer, 10 µM one dose; read-out: Percent inhibition (cell growth inhibition %)
Text: as §1, §2

NCI-H322M = assay: NCI 60-cell line one dose antiproliferative assay; assay type: cell-based; details: Homo sapiens, Non-Small Cell Lung Cancer, 10 µM one dose, read-out: Percent inhibition (cell growth inhibition %)
Text: as §1, §2

CAKI-1 = assay: NCI 60-cell line one dose antiproliferative assay; assay type: cell-based; details: Homo sapiens; CAKI-1, Renal Cancer, 10 µM one dose; read-out: Percent inhibition (cell growth inhibition %)
Text: as §1, §2

SNB-19 = assay: NCI 60-cell line one dose antiproliferative assay; assay type: cell-based; details: Homo sapiens; SNB-19, CNS Cancer, 10 µM one dose; read-out: Percent inhibition (cell growth inhibition %)
Text: as §1, §2

SNB-75 = assay: NCI 60-cell line one dose antiproliferative assay; assay type: cell-based; details: Homo sapiens; SNB-75, CNS Cancer, 10 µM one dose; read-out: Percent inhibition (cell growth inhibition %)
Text: as §1, §2

Sequence of GSK-3β (P49841 whole entry): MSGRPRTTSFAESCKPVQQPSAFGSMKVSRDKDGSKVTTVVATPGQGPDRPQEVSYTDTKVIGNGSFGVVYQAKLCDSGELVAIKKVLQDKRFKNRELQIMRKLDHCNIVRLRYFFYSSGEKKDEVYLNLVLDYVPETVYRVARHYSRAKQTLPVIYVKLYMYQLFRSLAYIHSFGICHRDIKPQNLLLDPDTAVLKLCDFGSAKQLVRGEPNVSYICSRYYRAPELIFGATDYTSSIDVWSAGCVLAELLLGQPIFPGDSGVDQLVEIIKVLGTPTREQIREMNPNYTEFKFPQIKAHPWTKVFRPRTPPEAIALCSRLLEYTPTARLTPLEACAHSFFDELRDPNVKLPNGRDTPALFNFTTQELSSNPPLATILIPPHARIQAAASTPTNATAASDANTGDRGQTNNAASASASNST

melting point: 300 °C
inhibition at 100 µM (GSK-3β): 70%
IC50 (GSK-3β; five doses 10 nM–100 µM): 28 µM
SMILES: Cc1cccc(NC(=O)Nc2ncnc3sc4c(c23)CCCC4)c1 [9b, 1-(5,6,7,8-Tetrahydrobenzo[4,5]thieno[2,3-d]pyrimidin-4-yl)-3-(m-tolyl)urea]

melting point: 300 °C
inhibition at 10 µM (GSK-3β): 17%
inhibition at 100 µM (GSK-3β): 68%
SMILES: S=C(Nc1ccccc1)Nc1ncnc2sc3c(c12)CCCC3 [9a, Phenyl-3-(5,6,7,8-tetrahydrobenzo [4,5]thieno[2,3-d)pyrimidin-4-yl) thiourea]

melting point: 275 to 276 °C
inhibition at 10 µM (GSK-3β): 3%
inhibition at 100 µM (GSK-3β): 17%
SMILES: O=C(COc1ncnc2sc3c(c12)CCCC3)NN=Cc1ccc(Cl)cc1 [5b, N'-(4-Chlorobenzylidene)-2-((5,6,7,8-tetrahydrobenzo [4,5]thieno[2,3-d]pyrimidin-4-yl)oxy) acetohydrazide]
inhibition at 10 µM (MCF7): 11.7%
inhibition at 10 µM (LOX IMVI): 7.09%
inhibition at 10 µM (MDA-MB-231/ATCC): 7.6%
inhibition at 10 µM (IGROV1): 11%
inhibition at 10 µM (RXF 393): 4.13%
inhibition at 10 µM (HS 578 T): 7.62%
inhibition at 10 µM (SN12C): 2.55%
inhibition at 10 µM (786–0): 2.11%
inhibition at 10 µM (EKVX): 3.11%
inhibition at 10 µM (OVCAR-5): 8.96%
inhibition at 10 µM (SF-268): 4.27%
inhibition at 10 µM (K-562): 0.32%
inhibition at 10 µM (UACC-62): 4.84%
inhibition at 10 µM (NCI-H226): 2.81%
inhibition at 10 µM (A498): 11.1%
inhibition at 10 µM (A549/ ATCC): 4.36%
inhibition at 10 µM (HOP-92): 0.71%
inhibition at 10 µM (T-47D): 6.96%
inhibition at 10 µM (SR): 1.63%
inhibition at 10 µM (PC-3): 3.8%
inhibition at 10 µM (RPMI-8226): 2.71%
inhibition at 10 µM (U251): 15.9%
inhibition at 10 µM (M14): 2%
inhibition at 10 µM (MALME-3 M): 6.05%
inhibition at 10 µM (UO-31): 23.1%
inhibition at 10 µM (NCI-H322M): 0.39%
inhibition at 10 µM (CAKI-1): 4.53%
inhibition at 10 µM (SNB-19): 9.77%
inhibition at 10 µM (SNB-75): 18.4%

melting point: 320 to 321 °C
SMILES: O=C(COc1ncnc2sc3c(c12)CCCC3)NNC(=O)c1ccc([N+](=O)[O-])cc1 [6b]
